Assay results reported in ChEMBL document CHEMBL1149133, “3,3-diaryl-1,3-dihydroindol-2-ones as antiproliferatives mediated by translation initiation inhibition” (2004).

How the values were obtained:
Lung cancer cell line = assay: In vitro anticancer activity against human lung cancer cell line; type: functional
[1] = Compound evaluated for their ability to phosphorylate eIF2R; type: functional; set-up: unit not given here

Structure (SMILES) | GI50 (Lung cancer cell line) [µM] | Activity [1]
COc1ccccc1C1(c2ccccc2)C(=O)Nc2ccccc21 (stereo not given) | – | 0.48
O=C1Nc2cc(Br)ccc2C1(c1ccccc1)c1ccccc1 | – | 0.89
O=C1Nc2ccc(Cl)cc2C1(c1ccccc1)c1ccccc1 | – | 0.61
O=C1Nc2ccc(Br)cc2C1(c1ccccc1)c1ccccc1 | – | 0.79
O=C1Nc2ccccc2C1(c1ccccc1)c1ccc(O)cc1 (stereo not given) | – | 0.86
COc1ccccc1C1(c2ccc(C(C)(C)C)cc2)C(=O)Nc2ccccc21 (stereo not given) | – | 0.93
O=C1Nc2cccc(Br)c2C1(c1ccccc1)c1ccccc1 | – | 0.84
O=C1Nc2ccccc2C1(c1ccccc1)c1ccccc1O (stereo not given) | – | 0.56
O=C1Nc2ccc(F)cc2C1(c1ccccc1)c1ccccc1 | – | 0.44
CC(C)(C)c1ccc(O)c(C2(c3ccccc3)C(=O)Nc3ccc(I)cc32)c1 (stereo not given) | – | 1.4

The next lines start with results.

GI50 (Lung cancer cell line) [µM] | Structure (SMILES) | Activity [1]
8 | O=C1Nc2ccc(I)cc2C1(c1ccccc1)c1ccccc1 | 1.31
14 | O=C1Nc2ccc([N+](=O)[O-])cc2C1(c1ccccc1)c1ccccc1 | 1.2
> 20 | CCc1ccc2c(c1)C(c1ccccc1)(c1ccccc1)C(=O)N2 | 0.85
7 | CC(C)(C)c1ccc(C2(c3ccccc3O)C(=O)Nc3ccccc32)cc1 (stereo not given) | 1.33
> 20 | CN1C(=O)C(c2ccccc2)(c2ccccc2)c2ccccc21 | –
4 | CC(C)(C)c1cccc(C2(c3ccccc3)C(=O)Nc3ccccc32)c1 (stereo not given) | 1.04
9 | O=C1Nc2ccc(S(=O)(=O)O)cc2C1(c1ccccc1)c1ccccc1 | –
13 | O=C1Nc2ccccc2C1(c1ccccc1)c1ccccc1 | 1
4 | CC(C)(C)c1ccc(O)c(C2(c3ccccc3)C(=O)Nc3ccccc32)c1 (stereo not given) | 2
8 | CC(C)(C)c1ccc(C2(c3ccccc3)C(=O)Nc3ccccc32)cc1 (stereo not given) | 0.95
14 | CC(C)(C)c1ccc(C2(c3ccc(O)cc3)C(=O)Nc3ccccc32)cc1 (stereo not given) | 2.01
